In US20240343733A1, “COMPOUNDS FOR TARGETING DEGRADATION OF IRAK4 PROTEINS” (BIOGEN MA INC., priority 2021, published 2024):

target: T1, IRAK4 (Homo sapiens, UniProt Q9NWZ3); test: IRAK4 Degradation Assay, HiBiT Method; type: cell-based; details: 293T cells expressing HiBiT-tagged IRAK4, 6 hours
T1 construct: 293Tcells expressing HiBiT-tagged IRAK4 were then added into 384-well plates
T1 sequence (Q9NWZ3 1-460): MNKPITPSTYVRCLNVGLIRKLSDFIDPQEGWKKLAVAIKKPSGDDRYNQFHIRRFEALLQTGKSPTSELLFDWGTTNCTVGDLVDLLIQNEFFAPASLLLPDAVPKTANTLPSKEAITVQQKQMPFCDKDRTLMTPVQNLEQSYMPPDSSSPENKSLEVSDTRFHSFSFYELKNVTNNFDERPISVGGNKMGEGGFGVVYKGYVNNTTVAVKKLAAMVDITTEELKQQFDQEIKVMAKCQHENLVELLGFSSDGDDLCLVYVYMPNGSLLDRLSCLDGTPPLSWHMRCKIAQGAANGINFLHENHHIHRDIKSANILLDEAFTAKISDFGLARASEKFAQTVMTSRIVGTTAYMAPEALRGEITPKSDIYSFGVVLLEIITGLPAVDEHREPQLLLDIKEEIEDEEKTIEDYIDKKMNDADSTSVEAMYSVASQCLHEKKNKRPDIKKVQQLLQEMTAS
In short: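 293T cells with HiBiT knocked in at the C-terminus of endogenous IRAK4, 10,000 per well, treated 6 h at 37 °C with an 11-point half-log series ([…]), in duplicate. Remaining IRAK4 read by Nano-Glo HiBiT lytic luminescence against DMSO-only and media-only controls.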

Compound	DC50 [nM]
CC(C)Oc1cc2nc(C3CCN(CC(=O)N4CCC(c5ccc(NC6CCC(=O)NC6=O)cc5)CC4)CC3)cn2cc1C(=O)Nc1ccccc1 (centres unmarked) [Example 93, 2-[1-[2-[4-[4-[(2,6-dioxo-3-piperidyl)amino]phenyl]-1-piperidyl]-2-oxo-ethyl]-4-piperidyl]-7-isopropoxy-N-phenyl-imidazo[1,2-a]pyridine-6-carboxamide]	100 to 500
CC(C)Oc1cc2nc(C3CCN(C(=O)CCCCNc4ccc(C5CCC(=O)NC5=O)cn4)CC3)cn2cc1C(=O)Nc1cccn([C@H]2C[C@H]2F)c1=O (stereo partly drawn) [Example 165, 2-(1-(5-((5-(2,6-dioxopiperidin-3-yl)pyridin-2-yl)amino)pentanoyl)piperidin-4-yl)-N-(1-((1S,2R)-2-fluorocyclopropyl)-2-oxo-1,2-dihydropyridin-3-yl)-7-isopropoxyimidazo[1,2-a]pyridine-6-carboxamide]	10 to 100
CC(C)Oc1cc2nc(C3CCN(C(=O)CC4(O)CCN(c5c(F)cc(N[C@H]6CCC(=O)NC6=O)cc5Cl)CC4)CC3)cn2cc1C(=O)Nc1cccc(C(F)F)n1 [Example 82, 2-[1-[2-[1-[2-chloro-4-[[(3S)-2,6-dioxo-3-piperidyl]amino]-6-fluoro-phenyl]-4-hydroxy-4-piperidyl]acetyl]-4-piperidyl]-N-[6-(difluoromethyl)-2-pyridyl]-7-isopropoxy-imidazo[1,2-a]pyridine-6-carboxamide]	10 to 100
CC(C)Oc1cc2nc(C3CCN(C(=O)CN4CCC(c5ccc(C6(F)CCC(=O)NC6=O)cc5)CC4)CC3)cn2cc1C(=O)Nc1cccc(C(F)F)n1 (centres unmarked) [Example 88, N-[6-(difluoromethyl)-2-pyridyl]-2-[1-[2-[4-[4-(3-fluoro-2,6-dioxo-3-piperidyl)phenyl]-1-piperidyl]acetyl]-4-piperidyl]-7-isopropoxy-imidazo[1,2-a]pyridine-6-carboxamide]	10 to 100
CC(C)Oc1cc2nc([C@H]3CC[C@H](CN4CCC(c5cccc(NC6CCC(=O)NC6=O)c5)CC4)CC3)cn2cc1C(=O)Nc1cccc(C(F)F)n1 (some centres unmarked) [Example 26, N-[6-(difluoromethyl)-2-pyridyl]-2-[4-[[4-[3-[(2,6-dioxo-3-piperidyl)amino]phenyl]-1-piperidyl]methyl]cyclohexyl]-7-isopropoxy-imidazo[1,2-a]pyridine-6-carboxamide]	100 to 500

Further lines, results first:

DC50 [nM]	Compound
10 to 100	CC(C)Oc1cc2nc([C@H]3CC[C@H](CN(C)C4CCN(c5ccc(C6CCC(=O)NC6=O)cc5)CC4)CC3)cn2cc1C(=O)Nc1cccc(C(F)(F)F)n1 (some centres unmarked) [Example 13, 2-[4-[[[1-[4-(2,6-dioxo-3-piperidyl)phenyl]-4-piperidyl]-methyl-amino]methyl]cyclohexyl]-7-isopropoxy-N-[6-(trifluoromethyl)-2-pyridyl]imidazo[1,2-a]pyridine-6-carboxamide]
10 to 100	CC(C)Oc1cc2nc([C@H]3CC[C@H](CN(C)C4CCN(c5ccc6c(c5)n(C)c(=O)n6C5CCC(=O)NC5=O)CC4)CC3)cn2cc1C(=O)Nc1cccc(C(F)F)n1 (some centres unmarked) [Example 27, N-[6-(difluoromethyl)-2-pyridyl]-2-[4-[[[1-[1-(2,6-dioxo-3-piperidyl)-3-methyl-2-oxo-benzimidazol-5-yl]-4-piperidyl]-methyl-amino]methyl]cyclohexyl]-7-isopropoxy-imidazo[1,2-a]pyridine-6-carboxamide]
< 10	CC(C)Oc1cc2nn(C3CCN(C(=O)CC4(O)CCN(c5cc(F)c(C6CCC(=O)NC6=O)cc5F)CC4)CC3)cc2cc1C(=O)Nc1cccc(C(F)F)n1 (centres unmarked) [Example 67, N-(6-(difluoromethyl)pyridin-2-yl)-2-(1-(2-(1-(4-(2,6-dioxopiperidin-3-yl)-2,5-difluorophenyl)-4-hydroxypiperidin-4-yl)acetyl)piperidin-4-yl)-6-isopropoxy-2H-indazole-5-carboxamide]
